# According to patent US10900014B2, “Long-term storage medium for culturing obligate anaerobic bacteria or microaerobic bacteria under aerobic environment, and method of detecting obligate anaerobic bacteria or microaerobic bacteria using said medium” (Kanto Kagaku Kabushiki Kaisha, priority 2015, dated 2021):
# Where “and” joins values, the source holds several entries; their conditions need not be identical. Equal entries are not always repeated. Where two headings read alike, the source gives them in different places.
# Tested on: C. difficile
# Assay type: cell-based
# Settings: 37° C. 24 h; for concentration added at which a mass of bacteria and the surrounding medium exhibited yellow color / concentration added at which a mass of bacteria exhibited yellow color / concentration added at which a mass of bacteria was found: added to medium of Table 1
Compound,concentration added at which a mass of bacteria and the surrounding medium exhibited yellow color,concentration added at which a mass of bacteria exhibited yellow color [g/L],concentration added at which a mass of bacteria was found [g/L],Yellow coloration degree (dithiothreitol added 0.075 g/L),Yellow coloration degree (dithiothreitol added 0.16 g/L),Yellow coloration degree (dithiothreitol added 0.32 g/L),Yellow coloration degree (dithiothreitol added 0.60 g/L),Yellow coloration degree (dithiothreitol added 0.90 g/L),Yellow coloration degree (dithiothreitol added 1.2 g/L),Yellow coloration degree (dithiothreitol added 1.5 g/L),Yellow coloration degree (dithiothreitol added 1.8 g/L),Yellow coloration degree (ascorbic acid added 0.075 g/L),Yellow coloration degree (ascorbic acid added 0.16 g/L),Yellow coloration degree (ascorbic acid added 0.32 g/L),Yellow coloration degree (ascorbic acid added 0.64 g/L),Yellow coloration degree (ascorbic acid added 1.8 g/L),Yellow coloration degree (ascorbic acid added 2.7 g/L),Yellow coloration degree (ascorbic acid added 3.6 g/L),Yellow coloration degree (ascorbic acid added 4.5 g/L)
O[C@H](CS)[C@H](O)CS (racemic) [dithiothreitol],0.6 g/L and 0.9 g/L,0.16 to 1.2,0.075 to 1.5,1,2,2,3,3,2,1,0,–,–,–,–,–,–,–,–
O=C1O[C@H]([C@@H](O)CO)C(O)=C1O [ascorbic acid],0.32 to 1.8 g/L,0.16 to 2.7,0.075 to 3.6,–,–,–,–,–,–,–,–,1,2,3,3,3,2,1,0
